The results in this text go back to ChEMBL document CHEMBL3108776, “Discovery of Small Molecule RIP1 Kinase Inhibitors for the Treatment of Pathologies Associated with Necroptosis” (ACS Med Chem Lett, 2013).

SMILES strings stand for the structures. ≈ marks a conversion by molar mass, not a printed value. Bounds are passed on as bounds.

Broadly, the IC50 is the concentration needed to halve the response being measured. Read a high IC50 as a need for much substance. The solubility is the dissolved amount per volume that the medium holds. Low readings indicate a poorly soluble substance, high ones a readily soluble substance. Broadly, the Cmax is the peak of the concentration-time curve. As a reminder, the AUC is concentration integrated over time. Higher therefore signals high exposure.

Data set [1] addresses T1, Receptor-interacting serine/threonine-protein kinase 1 (Homo sapiens, UniProt Q13546).
T1 sequence (Q13546 whole entry): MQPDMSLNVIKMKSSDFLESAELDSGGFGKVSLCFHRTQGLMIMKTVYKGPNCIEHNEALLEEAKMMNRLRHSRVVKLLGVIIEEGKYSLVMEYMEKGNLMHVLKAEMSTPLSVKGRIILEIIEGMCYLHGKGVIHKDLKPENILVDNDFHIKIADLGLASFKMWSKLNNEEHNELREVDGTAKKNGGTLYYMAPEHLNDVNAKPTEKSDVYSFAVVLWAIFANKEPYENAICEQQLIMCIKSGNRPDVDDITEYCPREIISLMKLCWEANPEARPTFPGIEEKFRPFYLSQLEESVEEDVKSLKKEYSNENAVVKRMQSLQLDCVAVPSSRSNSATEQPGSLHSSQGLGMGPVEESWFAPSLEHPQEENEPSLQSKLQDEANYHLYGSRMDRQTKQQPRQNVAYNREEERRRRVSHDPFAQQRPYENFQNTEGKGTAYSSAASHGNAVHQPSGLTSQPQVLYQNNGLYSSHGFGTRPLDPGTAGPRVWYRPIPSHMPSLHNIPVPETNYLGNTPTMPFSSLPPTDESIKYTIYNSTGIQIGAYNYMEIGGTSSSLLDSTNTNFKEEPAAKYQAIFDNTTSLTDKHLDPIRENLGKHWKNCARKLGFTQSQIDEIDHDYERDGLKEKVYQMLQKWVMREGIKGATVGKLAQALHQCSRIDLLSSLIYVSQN
The data set can be described thus: Inhibition of human N-terminal His-GST-TEV-fused RIP1 kinase domain (1 to 375) autophosphorylation expressed in baculovirus infected insect Sf9 cells after 4 hrs by ADP-Glo luminescence assay.

The target of data set [2] is T1, Receptor-interacting serine/threonine-protein kinase 1. The data set can be described thus: Displacement of (14-(2-{[3-({2-{[4-(cyanomethyl)phenyl]amino}-6-[(5-cyclopropyl-1H-pyrazol-3-yl)amino]-4-pyrimidinyl}amino)propyl]amino}-2-oxoethyl)-16,16,18,18-tetramethyl-6,7,7a,8a,9,10,16,18-octahydrobenzo[2'',3'']indolizino[8'',7'':5',6']pyrano[3',2':3,4]pyrido[1,2-a]indol-5-ium-2-sulfonate from human N-terminal His-GST-TEV-fused RIP1 kinase domain (1 to 375) expressed in baculovirus infected insect Sf9 cells preincubated for 10 mins followed by fluorescent ligand addition measured after 15 mins by fluorescence polarization assay. On the technique in general: In fluorescence polarisation assays a small probe gives low polarisation when free and higher when bound to something large.

For data set [3], the system named is Mus musculus. Description: Antiinflammatory activity in po dosed mouse TNFalpha-induced lethal shock model assessed as protection from body temperature loss administered 15 mins prior to TNFalpha challenge measured over 7 hrs. The data set is classed as functional, organism-based.
Data set [4] is described as follows: Permeability of the compound. The data set is classed as ADME. The conditions noted are these: not told; read-out: permeability.
Data set [5] in a line: Solubility of the compound. The data set is classed as physicochemical.
The nature of data set [6]: Fraction unbound in mouse. The data set is classed as ADME, organism-based. Conditions: in vivo.
The subject of data set [7] is Mus musculus. Description: Antiinflammatory activity in mouse TNFalpha-induced lethal shock model assessed as protection from body temperature loss at 20 mg/kg, po administered 15 mins prior to TNFalpha challenge measured over 7 hrs relative to TNFalpha-treated control. The data set is classed as functional.
The test system of data set [8] is Mus musculus. Description: Antiinflammatory activity in mouse TNFalpha-induced lethal shock model assessed as protection from body temperature loss at 2 mg/kg, po administered 15 mins prior to TNFalpha challenge measured over 7 hrs relative to TNFalpha-treated control. The data set is classed as functional.
A short description of data set [9]: Cmax in C57BL/6 mouse at 2 mg/kg, po measured at 4 hrs. The data set is classed as ADME, organism-based. More on the design: dose 2 mg/kg, route oral. The conditions noted are these: in vivo.
Data set [10] deals with Mus musculus. Description: Antiinflammatory activity in mouse TNFalpha-induced lethal shock model assessed as protection from body temperature loss at 0.2 mg/kg, po administered 15 mins prior to TNFalpha challenge measured over 7 hrs relative to TNFalpha-treated control. The data set is classed as functional.
A short description of data set [11]: AUC in C57BL/6 mouse at 2 mg/kg, po measured at 4 hrs. The data set is classed as ADME, organism-based. Set-up: dose 2 mg/kg, route oral. Conditions: plasma.

As to `O=C(Nc1cccc(-c2c[nH]c3ncc(-c4cn[nH]c4)cc23)c1)Nc1cc(C(F)(F)F)ccc1F`, the IC50 in data set [1] stood at 6 nM; in data set [2], 16 nM.

In the case of `Nc1ccc(-c2cnc3[nH]cc(-c4cccc(NC(=O)Nc5cc(C(F)(F)F)ccc5F)c4)c3c2)cc1`, the half-maximal inhibitory concentration (IC50) in data set [1] was 50 nM; in data set [2], 32 nM.

With `O=C(Nc1cccc(-c2c[nH]c3ncc(-c4ccccc4)cc23)c1)NC1CCCC1`, the IC50 in [1] came out at 500 nM; in [2], 2000 nM.

As for `CC(=O)c1cccc(NC(=O)Nc2cccc(-c3c[nH]c4ncc(-c5ccccc5)cc34)c2)c1`, the IC50 in data set [1] came to 10 nM; in data set [2] it was 13 nM.

For the molecule `CCc1cccc(NC(=O)Nc2ccc(-c3coc4ncnc(N)c34)cc2)c1`, the IC50 in [1] worked out at 10 nM; in [2] it was 25 nM.

On to `Nc1nccc2c(-c3ccc(NC(=O)Nc4ccc(Cl)c(C(F)(F)F)c4)cc3)cccc12`, for which the IC50 was determined as 160 nM in data set [1] and 40 nM in [2].

Consider `O=C(Nc1cccc(-c2c[nH]c3ncc(-c4cccnc4)cc23)c1)Nc1cc(C(F)(F)F)ccc1F`, for which the concentration for half-maximal inhibition (IC50) is 4 nM in data set [1] and 7.9 nM in data set [2].

For the molecule `Nc1ncnc2occ(-c3ccc(NC(=O)Nc4cc(C(F)(F)F)ccc4Cl)cc3)c12`, the IC50 in [1] is 2500 nM; in data set [2], over 10000 nM.

As for `CS(=O)(=O)c1cccc(-c2cnc3[nH]cc(-c4cccc(NC(=O)Nc5cc(C(F)(F)F)ccc5F)c4)c3c2)c1`, the IC50 came to 10 nM in data set [1] and 63 nM in [2].

For `CC(C)(C)c1cc(NC(=O)Nc2ccc(-c3coc4ncnc(N)c34)cc2)no1`, the IC50 in data set [1] came to 16 nM; in data set [2], 32 nM.

Regarding `O=C(Nc1ccccc1)Nc1cccc(-c2c[nH]c3ncc(-c4ccccc4)cc23)c1`, the figures for the IC50 in [1] and in data set [2] were 400 nM and 1300 nM, respectively.

Turning to `Nc1nccc2c(-c3ccc(NC(=O)Nc4cc(C(F)(F)F)ccc4Cl)cc3)cccc12`, the figures for the IC50 in data set [1] and in [2] were 630 nM and 3200 nM, respectively.

`Nc1ncnc2occ(-c3ccc(NC(=O)Nc4cc(C(F)(F)F)ccc4F)cc3)c12` [GW770249X]: the Activity entry in the data set on Mus musculus [3] was “Dose-dependent effect”; with Mus musculus [7], 77%; in the data set on Mus musculus [8], 22%; with Mus musculus [10], 15%. Further, the Papp in data set [4] stood at 21 ×10⁻⁶ cm/s. Besides, the concentration in solution in data set [5] (solubility) came to 13 µM (≈ 5.61 µg/mL). In data set [6], the Fu turned out to be 0.04%. In data set [9], this molecule showed a peak concentration (Cmax) of 1100 ng/mL. Moreover, the AUC at 4 h in data set [11] stood at 14000 ng·h/mL.

For `Nc1ncnc2occ(-c3ccc(NC(=O)Nc4cccc(Cl)c4)cc3)c12`, the IC50 in data set [1] was 200 nM; in data set [2] it was 160 nM.

As for `COc1cccc(NC(=O)Nc2cccc(-c3c[nH]c4ncc(-c5ccccc5)cc34)c2)c1`, the results for the IC50 in data set [1] and in data set [2] were 6.3 nM and 32 nM, respectively.

For the molecule `Nc1nccc2c(-c3ccc(NC(=O)Nc4ccc(F)c(C(F)(F)F)c4)cc3)cccc12`, the concentration for half-maximal inhibition (IC50) in data set [1] is 10 nM; in data set [2], 320 nM.

`Nc1ncnc2occ(-c3ccc(NC(=O)Nc4cc(F)cc(C(F)(F)F)c4)cc3)c12`: the results for the half-inhibitory concentration (IC50) in data set [1] and in data set [2] were 63 nM and 130 nM, respectively.

Take `Nc1ncnc2occ(-c3ccc(NC(=O)Nc4ccc(F)c(C(F)(F)F)c4)cc3)c12`: the IC50 in [1] was found to be 500 nM; in [2], 160 nM.

Regarding `Nc1nccc2c(-c3ccc(NC(=O)Nc4cc(C(F)(F)F)ccc4F)cc3)cccc12`, the values for the half-inhibitory concentration (IC50) in data set [1] and in data set [2] were 130 nM and 13 nM, respectively.

Consider `Nc1ncnc2occ(-c3ccc(NC(=O)Nc4cccc(C(F)(F)F)c4)cc3)c12` [GW795493X], for which the 50% inhibitory concentration (IC50) was 10 nM in [1] and 20 nM in [2].

For `Nc1ncnc2occ(-c3ccc(NC(=O)Nc4cccc(C(F)(F)F)c4F)cc3)c12`, the values for the half-inhibitory concentration (IC50) in data set [1] and in data set [2] were 200 nM and 250 nM, respectively.

Turning to `Nc1ncnc2occ(-c3ccc(NC(=O)Nc4cc(C(F)(F)F)cc(C(F)(F)F)c4)cc3)c12` [GW795486X], the half-inhibitory concentration (IC50) came to 32 nM in data set [1] and 320 nM in [2].

On to `O=C(Nc1cccc(-c2c[nH]c3ncc(-c4ccccc4)cc23)c1)Nc1cccc(C(F)(F)F)c1`, for which the IC50 in [1] and in [2] was 32 nM throughout.

As to `Nc1nccc2c(-c3ccc(NC(=O)Nc4cccc(C(F)(F)F)c4)cc3)cccc12`, the IC50 in data set [1] came to 25 nM; in data set [2] it was 20 nM.

As for `Nc1ncnc2occ(-c3ccc(NC(=O)Nc4ccc5ccccc5c4)cc3)c12`, the IC50 in data set [2] is 100 nM.

For the molecule `Nc1nccc2c(-c3ccc(NC(=O)Nc4cccc(C(F)(F)F)c4F)cc3)cccc12`, the IC50 is 4000 nM in [1] and over 10000 nM in data set [2].

For the molecule `CCS(=O)(=O)c1ccc(-c2cnc3[nH]cc(-c4cccc(NC(=O)Nc5cc(C(F)(F)F)ccc5F)c4)c3c2)cc1`, the IC50 was 10 nM in data set [1] and 3.2 nM in data set [2].

For the molecule `NC(=O)c1cccc(-c2cnc3[nH]cc(-c4cccc(NC(=O)Nc5cc(C(F)(F)F)ccc5F)c4)c3c2)c1`, the concentration for half-maximal inhibition (IC50) in [1] stood at 10 nM; in data set [2] it was 16 nM.

Take `O=C(Nc1cccc(-c2c[nH]c3ncc(-c4ccccc4)cc23)c1)Nc1cccc([N+](=O)[O-])c1`: the IC50 in [1] and in data set [2] was 16 nM each time.

In the case of `Nc1ncnc2occ(-c3ccc(NC(=O)Nc4ccc(Cl)c(C(F)(F)F)c4)cc3)c12`, the IC50 in data set [1] came to 32 nM; in data set [2], 160 nM.

With `Nc1nccc2c(-c3ccc(NC(=O)Nc4cc(F)cc(C(F)(F)F)c4)cc3)cccc12`, the half-maximal inhibitory concentration (IC50) in data set [1] stood at 25 nM; in data set [2], 160 nM.

As to `O=C(Nc1cccc(-c2c[nH]c3ncc(-c4ccccc4)cc23)c1)Nc1cc(C(F)(F)F)ccc1F`, the IC50 is 80 nM in data set [1] and 200 nM in data set [2].
